Experimental findings from patent publication US20050282743A1, “Molecular interactions in cells” (Arbor Vita Corporation, priority 2001, published 2005) are described below.

Holding throughout (format): binding
For experiment [1], the target named is T1, PDZ protein (GST-PDZ fusion) (Homo sapiens, UniProt Q13424).
T1 construct: made in house; host or cells: E. coli (DH5alpha, BL21 or JM109)
T1 sequence (Q13424 1-505): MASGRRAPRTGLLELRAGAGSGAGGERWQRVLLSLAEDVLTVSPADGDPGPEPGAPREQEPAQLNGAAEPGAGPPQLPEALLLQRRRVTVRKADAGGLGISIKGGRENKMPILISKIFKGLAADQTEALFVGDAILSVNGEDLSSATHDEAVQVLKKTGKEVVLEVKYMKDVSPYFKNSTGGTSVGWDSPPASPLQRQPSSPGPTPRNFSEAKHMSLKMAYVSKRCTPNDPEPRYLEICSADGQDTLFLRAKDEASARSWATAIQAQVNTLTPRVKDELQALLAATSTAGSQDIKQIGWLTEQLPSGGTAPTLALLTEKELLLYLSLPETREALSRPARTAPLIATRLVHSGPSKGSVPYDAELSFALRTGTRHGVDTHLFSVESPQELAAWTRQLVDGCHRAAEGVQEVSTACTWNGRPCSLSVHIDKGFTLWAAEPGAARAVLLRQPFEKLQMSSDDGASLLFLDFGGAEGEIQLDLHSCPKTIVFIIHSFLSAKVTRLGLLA
As to the kind of experiment: G' assay (10 uM PL peptide), results of TABLE 7 and TABLE 12. Particulars: PDZ Synt. 1 alpha, PDZ Domain 1. An outline of the steps:
(§1)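 Biotin-PL peptide (N-term label), 10 uM vs GST-PDZ; protein 5 ug/ml by default. A450 nm binned: 1 = 0-1, 2 = 1-2, 3 = 2-3, 4 = 3-4, 5 = >4 on >2 repeats, 0 = no binding.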

For experiment [2], the system named is PDZ protein (GST-PDZ fusion). The experiment is described as above. Particulars: PDZ SHANK, PDZ Domain 1. An outline of the steps: as §1
Experiment [3] concerns the target T2, PDZ protein (GST-PDZ fusion) (Homo sapiens, UniProt Q6P0Q8).
T2 construct: made in house; host or cells: E. coli (DH5alpha, BL21 or JM109)
The description is as above. Put shortly: as §1

For experiment [4], the target named is T3, PDZ protein (GST-PDZ fusion) (Homo sapiens, UniProt Q13796).
T3 construct: made in house; host or cells: E. coli (DH5alpha, BL21 or JM109)
The description is as above. Particulars: PDZ hAPXL, PDZ Domain 1. Put shortly: as §1

Experiment [5] addresses T4, PDZ protein (GST-PDZ fusion) (Homo sapiens, UniProt Q5T2W1).
T4 construct: made in house; host or cells: E. coli (DH5alpha, BL21 or JM109)
T4 sequence (Q5T2W1 1-519): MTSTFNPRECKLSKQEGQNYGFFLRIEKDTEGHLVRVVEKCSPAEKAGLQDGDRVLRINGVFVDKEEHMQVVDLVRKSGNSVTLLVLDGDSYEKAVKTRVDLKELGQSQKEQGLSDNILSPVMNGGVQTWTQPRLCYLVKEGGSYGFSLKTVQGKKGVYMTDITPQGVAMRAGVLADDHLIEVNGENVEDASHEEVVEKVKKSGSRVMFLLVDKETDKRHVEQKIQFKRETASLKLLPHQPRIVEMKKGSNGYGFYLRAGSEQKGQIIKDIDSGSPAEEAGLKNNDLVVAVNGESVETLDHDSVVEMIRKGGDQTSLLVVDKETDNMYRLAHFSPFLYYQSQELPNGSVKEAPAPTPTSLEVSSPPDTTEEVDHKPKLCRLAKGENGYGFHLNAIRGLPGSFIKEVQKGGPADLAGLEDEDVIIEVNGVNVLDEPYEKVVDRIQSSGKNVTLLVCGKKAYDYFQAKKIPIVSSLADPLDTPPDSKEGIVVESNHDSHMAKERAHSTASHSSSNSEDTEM
The experiment is described as above. Particulars: PDZ PDZK1, PDZ Domain 2, 3, 4. Put shortly: as §1

Experiment [6] concerns the target T5, PDZ protein (GST-PDZ fusion) (Homo sapiens, UniProt P57105).
T5 construct: made in house; host or cells: E. coli (DH5alpha, BL21 or JM109)
T5 sequence (P57105 1-145): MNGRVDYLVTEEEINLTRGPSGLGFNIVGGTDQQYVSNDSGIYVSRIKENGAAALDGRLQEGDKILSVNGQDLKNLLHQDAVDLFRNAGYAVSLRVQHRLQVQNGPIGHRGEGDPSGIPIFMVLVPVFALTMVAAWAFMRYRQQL
Described as above. Particulars: PDZ Outer Membrane, PDZ Domain 1. An outline of the steps: as §1

The target of experiment [7] is T6, PDZ protein (GST-PDZ fusion) (Homo sapiens, UniProt Q9P202).
T6 construct: made in house; host or cells: E. coli (DH5alpha, BL21 or JM109)
T6 sequence (Q9P202 1-907): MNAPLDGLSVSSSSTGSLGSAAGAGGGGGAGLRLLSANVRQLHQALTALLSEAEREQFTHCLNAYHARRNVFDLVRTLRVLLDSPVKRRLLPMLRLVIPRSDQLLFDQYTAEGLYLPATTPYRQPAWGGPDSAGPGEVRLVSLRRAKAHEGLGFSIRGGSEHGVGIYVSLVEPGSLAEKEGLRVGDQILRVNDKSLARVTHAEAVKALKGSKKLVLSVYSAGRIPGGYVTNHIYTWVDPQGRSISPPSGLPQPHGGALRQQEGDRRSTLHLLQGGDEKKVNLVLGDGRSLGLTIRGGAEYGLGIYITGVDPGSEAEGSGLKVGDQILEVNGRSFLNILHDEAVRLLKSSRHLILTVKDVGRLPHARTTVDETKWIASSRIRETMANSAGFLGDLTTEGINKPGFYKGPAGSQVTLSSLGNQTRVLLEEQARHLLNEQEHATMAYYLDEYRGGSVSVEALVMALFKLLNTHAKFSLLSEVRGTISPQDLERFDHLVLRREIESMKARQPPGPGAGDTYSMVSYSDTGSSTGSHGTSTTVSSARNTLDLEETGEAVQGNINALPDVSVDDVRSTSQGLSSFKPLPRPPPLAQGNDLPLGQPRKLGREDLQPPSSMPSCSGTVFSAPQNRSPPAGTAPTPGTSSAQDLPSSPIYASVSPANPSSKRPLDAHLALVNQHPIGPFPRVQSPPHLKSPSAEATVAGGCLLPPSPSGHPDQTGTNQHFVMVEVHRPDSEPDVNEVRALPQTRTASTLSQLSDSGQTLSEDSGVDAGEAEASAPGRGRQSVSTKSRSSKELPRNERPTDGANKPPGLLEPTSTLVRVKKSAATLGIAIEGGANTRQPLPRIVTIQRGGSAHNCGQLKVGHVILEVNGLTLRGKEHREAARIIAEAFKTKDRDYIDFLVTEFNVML
The description is as above. Particulars: PDZ KIAA1526, PDZ Domain 1. An outline of the steps:
as §1

Experiment [8] has as its target T7, PDZ-domain polypeptide (GST/PDZ fusion protein) (Homo sapiens, UniProt Q6P0Q8).
T7 construct: made in house; host or cells: E. coli (DH5alpha, BL21 or JM109)
The experiment in a line: Apparent affinity (Kd) by titration of PL peptide in the G assay. Particulars: PDZ KIAA0807(S), PDZ Domain 1; titration of the PL peptide; read-out: Peptide Optimal Conc (Kd, dissociation constant). As for the experimental part: The third column labeled “Peptide Optimal Concentration” in the tables is a number reflective of the binding interaction between the PL protein and PDZ protein. […] The column labeled “Protein Optimal Concentration” refers to the protein concentration used to assay PL interaction (in ug/ml); a ‘0’ is indicative of 5 ug/ml protein concentration; any other value represents the concentration (in ug/ml) used to determine the dissociation constant for a given interaction.
The “A” and “G” assays described supra can be used to determine the “apparent affinity” of binding of a PDZ ligand peptide to a PDZ-domain polypeptide. Apparent affinity is determined based on the concentration of one molecule required to saturate the binding of a second molecule (e.g., the binding of a ligand to a receptor). Two particularly useful approaches for quantitation of apparent affinity of PDZ-ligand binding are provided infra.
In cases where satisfying the above criteria proves difficult, an alternative approach (infra) can be used.
(1) A fixed concentration of a PDZ-domain polypeptide and increasing concentrations of a labeled PL peptide (labeled with, for example, biotin or fluorescein, see TABLE 9 for representative peptide amino acid sequences) are mixed together in solution and allowed to react. In certain assays, peptide concentrations are 0.1 uM, 1 uM, 10 uM, 100 uM, 1 mM. In other assays, appropriate reaction times can range from 10 minutes to 2 days at temperatures ranging from 4° C. to 37° C. In some instances, the identical reaction can also be carried out using a non-PDZ domain-containing protein as a control (e.g., if the PDZ-domain polypeptide is fusion protein, the fusion partner can be used).
(2) PDZ-ligand complexes can be separated from unbound labeled peptide using a variety of methods known in the art.
(3) The PDZ-ligand complex is detected based on presence of the label on the peptide ligand using a variety of methods and detectors known to one of skill in the art. For example, if the label is fluorescein and the separation is achieved using HPSEC, an in-line fluorescence detector can be used. The binding can also be detected as described supra for the G assay.

Ends that are not written are not given here. Peptide text beside a SMILES is read from it. * marks the point of attachment. Biotin = O=C1N[C@H]2[C@H](CS[C@H]2CCCCC(=O)*)N1

T2 sequence (Q6P0Q8 whole entry, the tested form may be a part): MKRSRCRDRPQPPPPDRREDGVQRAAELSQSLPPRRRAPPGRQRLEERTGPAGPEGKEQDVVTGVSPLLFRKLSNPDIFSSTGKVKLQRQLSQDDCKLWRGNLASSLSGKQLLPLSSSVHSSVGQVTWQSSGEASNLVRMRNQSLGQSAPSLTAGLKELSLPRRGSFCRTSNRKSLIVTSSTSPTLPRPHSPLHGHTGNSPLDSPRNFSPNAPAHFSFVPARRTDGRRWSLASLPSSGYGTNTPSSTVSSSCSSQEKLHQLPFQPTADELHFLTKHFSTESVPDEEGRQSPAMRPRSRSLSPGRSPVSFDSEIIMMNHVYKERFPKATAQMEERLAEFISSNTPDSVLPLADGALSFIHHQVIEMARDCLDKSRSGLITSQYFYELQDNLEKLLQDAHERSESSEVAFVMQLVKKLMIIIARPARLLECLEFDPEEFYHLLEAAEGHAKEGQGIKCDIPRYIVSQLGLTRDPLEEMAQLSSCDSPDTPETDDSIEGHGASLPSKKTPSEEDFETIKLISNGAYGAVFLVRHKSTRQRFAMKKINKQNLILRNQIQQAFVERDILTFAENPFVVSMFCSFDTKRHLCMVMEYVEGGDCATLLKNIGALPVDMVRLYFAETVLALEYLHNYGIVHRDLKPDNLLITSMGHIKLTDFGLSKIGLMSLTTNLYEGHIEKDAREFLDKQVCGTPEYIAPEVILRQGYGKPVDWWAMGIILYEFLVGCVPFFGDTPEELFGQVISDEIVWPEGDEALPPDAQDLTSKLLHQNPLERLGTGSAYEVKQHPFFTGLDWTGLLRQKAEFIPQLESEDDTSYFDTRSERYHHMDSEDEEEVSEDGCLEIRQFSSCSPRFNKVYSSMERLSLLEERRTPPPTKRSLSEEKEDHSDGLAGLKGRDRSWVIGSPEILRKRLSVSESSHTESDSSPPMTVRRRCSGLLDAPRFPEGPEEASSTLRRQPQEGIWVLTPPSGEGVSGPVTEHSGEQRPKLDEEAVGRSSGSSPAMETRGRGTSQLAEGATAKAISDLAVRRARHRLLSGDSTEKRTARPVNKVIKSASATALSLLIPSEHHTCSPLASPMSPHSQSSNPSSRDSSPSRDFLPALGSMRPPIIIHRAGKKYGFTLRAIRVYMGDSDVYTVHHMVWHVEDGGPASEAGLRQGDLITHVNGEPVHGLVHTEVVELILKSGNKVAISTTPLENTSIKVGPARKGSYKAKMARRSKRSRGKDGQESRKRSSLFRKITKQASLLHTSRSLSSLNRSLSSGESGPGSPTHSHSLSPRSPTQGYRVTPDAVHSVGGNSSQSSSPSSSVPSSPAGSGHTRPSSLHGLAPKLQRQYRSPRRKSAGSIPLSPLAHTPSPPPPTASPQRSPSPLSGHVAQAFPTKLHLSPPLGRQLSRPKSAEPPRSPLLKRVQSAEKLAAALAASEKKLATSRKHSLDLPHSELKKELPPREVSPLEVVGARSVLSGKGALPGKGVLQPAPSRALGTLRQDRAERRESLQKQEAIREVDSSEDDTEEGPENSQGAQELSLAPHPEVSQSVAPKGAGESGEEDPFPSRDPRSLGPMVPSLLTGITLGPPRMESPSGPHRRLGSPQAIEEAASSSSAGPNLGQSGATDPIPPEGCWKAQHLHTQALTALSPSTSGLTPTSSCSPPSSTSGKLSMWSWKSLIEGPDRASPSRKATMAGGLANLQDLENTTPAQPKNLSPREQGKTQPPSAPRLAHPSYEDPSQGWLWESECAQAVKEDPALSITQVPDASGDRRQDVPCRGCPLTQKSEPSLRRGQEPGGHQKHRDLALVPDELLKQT
T3 sequence (Q13796 whole entry, the tested form may be a part): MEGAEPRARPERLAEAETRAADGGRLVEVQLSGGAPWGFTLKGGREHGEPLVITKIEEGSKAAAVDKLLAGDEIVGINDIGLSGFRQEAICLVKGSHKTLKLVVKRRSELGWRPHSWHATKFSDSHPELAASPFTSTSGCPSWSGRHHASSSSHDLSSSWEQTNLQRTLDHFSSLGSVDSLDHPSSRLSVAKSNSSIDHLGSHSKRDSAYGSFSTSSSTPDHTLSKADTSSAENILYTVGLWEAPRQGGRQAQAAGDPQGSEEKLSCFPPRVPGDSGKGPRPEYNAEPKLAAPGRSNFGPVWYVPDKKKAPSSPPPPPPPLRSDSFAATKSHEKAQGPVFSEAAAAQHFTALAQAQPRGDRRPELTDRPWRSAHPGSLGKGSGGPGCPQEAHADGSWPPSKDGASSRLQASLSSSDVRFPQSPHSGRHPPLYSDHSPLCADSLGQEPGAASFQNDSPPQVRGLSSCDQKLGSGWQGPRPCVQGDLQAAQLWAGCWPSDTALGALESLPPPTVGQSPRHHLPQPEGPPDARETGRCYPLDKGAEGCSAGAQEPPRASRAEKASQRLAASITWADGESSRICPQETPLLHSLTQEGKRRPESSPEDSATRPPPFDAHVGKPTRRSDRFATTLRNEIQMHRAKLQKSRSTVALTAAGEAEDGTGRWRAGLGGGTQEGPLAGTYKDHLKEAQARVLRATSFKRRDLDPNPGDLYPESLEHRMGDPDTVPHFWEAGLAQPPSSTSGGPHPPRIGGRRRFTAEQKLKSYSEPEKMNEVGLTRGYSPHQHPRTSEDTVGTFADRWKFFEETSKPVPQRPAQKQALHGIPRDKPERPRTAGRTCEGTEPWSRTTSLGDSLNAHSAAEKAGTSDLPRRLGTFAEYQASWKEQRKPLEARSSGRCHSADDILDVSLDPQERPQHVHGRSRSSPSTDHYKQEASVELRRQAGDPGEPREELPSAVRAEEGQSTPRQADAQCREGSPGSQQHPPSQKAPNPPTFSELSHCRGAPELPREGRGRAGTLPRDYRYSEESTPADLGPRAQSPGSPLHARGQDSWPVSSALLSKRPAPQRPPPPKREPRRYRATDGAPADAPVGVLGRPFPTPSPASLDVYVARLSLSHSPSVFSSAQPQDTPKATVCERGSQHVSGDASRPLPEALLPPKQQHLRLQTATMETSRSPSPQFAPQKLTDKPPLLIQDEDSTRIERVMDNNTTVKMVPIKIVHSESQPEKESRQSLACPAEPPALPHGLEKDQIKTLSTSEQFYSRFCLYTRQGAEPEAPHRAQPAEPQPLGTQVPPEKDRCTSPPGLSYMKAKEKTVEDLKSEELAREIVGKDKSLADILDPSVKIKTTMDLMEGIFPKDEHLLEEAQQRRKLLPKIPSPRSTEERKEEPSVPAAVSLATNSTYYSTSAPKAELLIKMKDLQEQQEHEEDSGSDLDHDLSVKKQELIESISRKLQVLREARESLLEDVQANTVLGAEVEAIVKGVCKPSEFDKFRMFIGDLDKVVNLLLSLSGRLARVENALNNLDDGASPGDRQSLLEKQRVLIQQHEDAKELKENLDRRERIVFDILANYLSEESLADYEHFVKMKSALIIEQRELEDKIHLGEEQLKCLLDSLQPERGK

“DAKLKSDGTIAAITEKETHF (Biotin-DAKLKSDGTIAAITEKETHF) [GABA transporter 3]”: the Classification in experiment [1] is on record as 1 (A450 nm 0-1); in experiment [2], 1 (A450 nm 0-1); in experiment [3] (PDZ KIAA807), 1 (A450 nm 0-1); in experiment [3] (PDZ KIAA0807(S), PDZ Domain 1) it was 1 (A450 nm 0-1); in experiment [4] it was 1 (A450 nm 0-1); in experiment [5], 1 (A450 nm 0-1).
With `CC[C@H](C)[C@H](NC(=O)[C@H](CO)NC(=O)[C@@H](NC(=O)CNC(=O)[C@H](CCCNC(=N)N)NC(=O)[C@H](CC(=O)O)NC(=O)[C@@H]1CCCN1C(=O)[C@H](CC(=O)O)NC(=O)[C@H](CC(N)=O)NC(=O)CNC(=O)[C@H](CC(C)C)NC(=O)[C@H](CC(N)=O)NC(=O)[C@H](CC(C)C)NC(=O)CNC(=O)[C@H](CC(C)C)NC(=O)[C@@H](NC(=O)[C@@H]1CCCN1C(=O)[C@@H](NC(=O)[C@@H]1CCCN1C(=O)[C@H](CCC(N)=O)NC(=O)CCCC[C@@H]1SC[C@@H]2NC(=O)N[C@@H]21)[C@@H](C)O)[C@@H](C)O)[C@@H](C)O)C(=O)O` [GluR delta-2] (Biotin-QPTPTLGLNLGNDPDRGTSI-OH; C-terminus assumed), the Classification in experiment [6] is recorded as 2 (A450 nm 1-2); in experiment [3] (PDZ KIAA0807(S), PDZ Domain 1) it was 4 (A450 nm 3-4); in experiment [3] (PDZ KIAA807, PDZ Domain not given) it was 3 (A450 nm 2-3); in experiment [7] it was 2 (A450 nm 1-2). Also, in experiment [8], the Kd was 4 µM.
